Measurements reported in patent US20150174059A1, “ORAL CARE” (University of Pretoria, priority 2012, published 2015).
Structures can show the parent of a compound that is named as a salt. Where two headings read alike, the source gives them in different places. Marks after values point to notes of the source that are not given here. Numbered stars: 1 amine (or outer) side, 2 acyl side, 3 side chain; on linkers, the order of the positions; unused ones are H or OH. Bridge positions count the residues as written; N and C are the ends. Square brackets hold non-standard residues; d marks the D form. Peptide text beside a SMILES is read from it. I, II: the chains in the order shown. Actinocin(9to1) = Cc1c2oc3c(C)ccc(C(=O)[*:1])c3nc-2c(C(=O)[*:2])c(N)c1=O; NMeV = CN[C@H](C(=O)O)C(C)C; Sar = CNCC(=O)O

Legend:
[1] = system: Actinomyces israelii (ATCC 10049); assay: Microdilution MIC/MBC against Actinomyces israelii; assay type: cell-based; details: for MIC / MBC: ATCC10049
Method: (§1) The microorganisms used in this study included Actinomyces israelii (ATCC 10049), Prevotella intermedia (ATCC 25611), Streptococcus mutans (ATCC 25175), Candia albicans (ATCC 10231) and a strain of Candida albicans resistant to polyenes and azoles (1051604). The bacteria were grown on Casein-peptone Soymeal-peptone Agar medium (CASO) (Merck Chemicals (Pty) Ltd Wadeville, South Africa) under anaerobic conditions in an anaerobic jar with Anaerocult® A (Merck KGaA Darmstadt, Germany), at 37° C. for 72 hours. Actinomyces israelii and S. mutans had CASO agar enriched with 1% sucrose (Merck Chemicals (Pty) Ltd Wadeville, South Africa). The drug susceptible and drug resistant strains of C. albicans were grown on Sabouraud Dextrose 4% Agar (SDA) (Merck Chemicals (Pty) Ltd Wadeville, South Africa), at 37° C. for 72 hours. Sub-culturing was done every second week. Inocula were prepared by suspending bacterial test organisms in their respective broths until turbidity was compatible with McFarland Standard 1 (Merck Chemicals (Pty) Ltd Wadeville, South Africa). Yeast test organisms were suspended in sterile distilled water until turbidity was compatible with McFarland Standard 1 (McFarland, 1907).
(§2) The microdilution technique using 96-well micro-plates, as described by Eloff (1998) was used to obtain the MIC and MBC values of the crude extracts against the microorganisms under study. The extracts, dissolved in 10% dimethyl sulphoxide (DMSO) (Merck Chemicals (Pty) Ltd), were serially diluted in broth (enriched for A. israelii and S. mutans) for the bacteria and sterile water for the Candida species; in the 96-well plate adding 48 hour old microorganisms grown at 37° C. The final concentration of extracts ranged from 12.5-0.10 mg/ml and the positive control, 5% chlorhexidine gluconate (CHX) (Dental Warehouse, Sandton, South Africa), ranged from 12.5-3.8×10^−4 mg/ml. Amphotericin B (Davis Diagnostics, Gauteng) an established antifungal drug, ranging from 0.2 mg/ml to 1.5×10^−3 mg/ml, was included for the Candida assays. […] Actinomyces israelii and S. mutans were incubated at 37° C., under anaerobic conditions, for 24 hours; P. intermedia was incubated at 37° C., under anaerobic conditions, for 48 hours; and C. albicans was incubated at 37° C. with p-iodonitrotetrazolium violet (INT) (Sigma-Aldrich, South Africa) already added, under moist aerobic conditions, for 24 hours.
(§3) To indicate bacterial growth, 50 μl of (0.2 mg/ml) INT, was added to micro-plate wells and incubated at 37° C., under anaerobic conditions, for 20-60 minutes until a red colour developed. The MIC was defined as the lowest concentration that inhibited the colour change of INT. […] These suspensions were reincubated at 37° C. for 28 hours (48 hours for P. intermedia), under anaerobic conditions. The MBC was determined as the lowest concentration of extract which inhibited 100% growth of microorganisms (Cohen et al., 1998).

HEp-2 cells = assay: Cytotoxicity, XTT method, HEp-2 cells; assay type: cell-based; details: for CC50: Homo sapiens, 72 h, read-out: 50% inhibition of cell growth IC50 + S.D.
Method: (§4) Microtitre plates with Vero and HEp-2 cells (Highveld Biological, Gauteng) were used for testing the four best ethanol extracts for cytotoxicity following the method of Basson (2005). Cytotoxicity was measured by the XTT (Sodium 3′-[1-(phenyl amino-carbonyl)-3,4-tetrazolim]-bis-[4 methoxy-6-nitro]benzene sulfonic acid hydrate) method using the cell proliferation kit II (Roche Diagnostics GmbH). A hundred microliters of Vero and HEp-2 cells (1×10^5 ml) were seeded onto micro-plates and incubated for 24 hrs to allow the cells to attach to the bottom of the plate. Dilution series were made of the extracts and the various concentrations (400-3.1 μg/ml) were added to the micro-plate and incubated for 72 hours. The XTT reagents were added to a final concentration of 0.3 mg/ml and the cells were incubated for one to two hours. The positive drug controls Doxorubicin HCl (Sigma-Aldrich, South Africa) and Actinomycin D (Sigma-Aldrich, South Africa), at concentration ranges of 0.78-0.01 μg/ml, were included in the assay. After incubation the absorbance of the colour was spectrophotometrically quantified using an enzyme-linked immunosorbent assay (ELISA) plate reader (BIO-TEK Power-Wave XS, Weltevreden Park, South Africa), which measured the optical density at 490 nm with a reference wavelength of 690 nm. The assay was carried out in triplicate.

[2] = system: Candida albicans resistant to polyenes and azoles (1051604); assay: Microdilution MIC/MBC against polyene and azole resistant C. albicans; assay type: cell-based; details: Yeast
Method: as §1, §2
as §3, with “The MBC was determined as the lowest concentration of extract which inhibited 100% growth of microorganisms (Cohen et al., 1998).” left out

[3] = system: Candida albicans (ATCC 10231); assay: Microdilution MIC/MBC against Candida albicans; assay type: cell-based
Method: as §1
The microdilution technique using 96-well micro-plates, as described by Eloff (1998) was used to obtain the MIC and MBC values of the crude extracts against the microorganisms under study. The extracts, dissolved in 10% dimethyl sulphoxide (DMSO) (Merck Chemicals (Pty) Ltd), were serially diluted in broth (enriched for A. israelii and S. mutans) for the bacteria and sterile water for the Candida species; in the 96-well plate adding 48 hour old microorganisms grown at 37° C. The final concentration of extracts ranged from 12.5-0.10 mg/ml and the positive control, 5% chlorhexidine gluconate (CHX) (Dental Warehouse, Sandton, South Africa), ranged from 12.5-3.8×10^−4 mg/ml. Amphotericin B (Davis Diagnostics, Gauteng) an established antifungal drug, ranging from 0.2 mg/ml to 1.5×10^−3 mg/ml, was included for the Candida assays. […]

E. coli = details: Aurentiacin A isolated from Myrica serrate; cited from earlier work
Bacillus subtilis = details: Aurentiacin A isolated from Myrica serrate; cited from earlier work
Cladosprium cucumerinum = details: Aurentiacin A isolated from Myrica serrate; cited from earlier work
[4] = system: Streptococcus mutans (ATCC 25175); assay: Microdilution MIC/MBC against Streptococcus mutans; assay type: cell-based; details: ATCC25175, Gram +ve
Method: as §1
(§5) The microdilution technique using 96-well micro-plates, as described by Eloff (1998) was used to obtain the MIC and MBC values of the crude extracts against the microorganisms under study. […]

[5] = system: Prevotella intermedia (ATCC 25611); assay: Microdilution MIC/MBC against Prevotella intermedia; assay type: cell-based; details: ATCC25611, Gram -ve
Method: as §1, §5

in vitro = assay type: cell-based; details: African green monkey
Method: as §4

DPPH antioxidant assay = assay type: biochemical; details: single component
Method: DPPH (2,2-diphenyl-1-picrylhydrazyl hydrate) is a stable free radical with an unpaired valence electron at a nitrogen atom forming a bridge. The free radical can initiate a chain reaction which causes the removal of an electron from another molecule to complete its own orbital. This free valence electron forms the basis of the DPPH assay as samples are tested to determine the scavenging capability of this DPPH radical.
A modified antioxidant assay was used (du Toit et al., 2001). A 2% stock solution of M. piperita and M. alternifolia, a 2 mg/ml stock solution of ascorbic acid (vitamin C) (Sigma-Aldrich (Pty) Ltd, Aston Manor, South Africa) and H. natalensis, a 1 mg/ml stock solution of Quercetin, a 500 μg/ml stock solution of TEAVIGO™ and a synergistic compilation of H. natalensis (3.125 mg/ml), M. alternifolia (0.05% v/v), M. piperita (0.05% v/v) and TEAVIGO™ (2.5 mg/ml) were prepared.
In a 96 well ELISA plate, 20 μl of each sample was added to 200 μl dH2O (except for Quercetin which was added to 200 μl EtOH), serial dilutions were done. After which […] DPPH (Sigma-Aldrich (Pty) Ltd, Aston Manor, South Africa) dissolved in ethanol (40 μg/ml) were added to all wells. All samples were prepared in triplicate. […] The absorbance was measured in an ELISA plate reader at 515 nm (du Toit et al., 2001). […]

[6] = against Actinomyces israelii, read-out: MIC of the isolated compounds
[7] = against Actinomyces israelii, NA = Not active, read-out: MBC of the isolated compounds

Oc1cc(O)c2c(c1)OC(c1ccccc1)C(O)C2 (stereo not drawn) [3,5,7-trihydroxyflavan (5), 3,5,7-Trihydroxyflavan]
MIC [1, 6]: > 1000 µg/mL | MIC of the isolated compounds ([1]; against Actinomyces israelii): >1000 µg/mL | CC50 (HEp-2 cells): > 200 µg/mL

Cc1c2oc3c(C)ccc(C(=O)N[C@@H]4C(=O)N[C@H](C(C)C)C(=O)N5CCC[C@H]5C(=O)N(C)CC(=O)N(C)[C@@H](C(C)C)C(=O)O[C@@H]4C)c3nc-2c(C(=O)N[C@@H]2C(=O)N[C@H](C(C)C)C(=O)N3CCC[C@H]3C(=O)N(C)CC(=O)N(C)[C@@H](C(C)C)C(=O)O[C@@H]2C)c(N)c1=O [Actinomycin D] (I: T[dV]P[Sar][NMeV] / II: T[dV]P[Sar][NMeV]; ester I:1-I:C, II:1-II:C; linker I:N-II:N via Actinocin(9to1))
50% inhibition of cell growth IC50 + S.D. (HEp-2 cells): 9.6 × 10^−3 ± 0.0003^c μg/ml | Cytotoxicity IC50, HEp-2 (HEp-2 cells; XTT, 72 hours): 0.0085 µg/mL

C[C@@H]1[C@H](O)[C@@H](C)/C=C/C=C/C=C/C=C/C=C/C=C/C=C/[C@H](O[C@@H]2O[C@H](C)[C@@H](O)[C@H](N)[C@@H]2O)C[C@@H]2O[C@](O)(C[C@@H](O)C[C@@H](O)[C@H](O)CC[C@@H](O)C[C@@H](O)CC(=O)O[C@H]1C)C[C@H](O)[C@H]2C(=O)O [Amphotericin B]
MBC, C.a (res) [2]: 0.013^c mg/ml | MIC, C.a (res) [2]: 0.013^c mg/ml | MIC, C.a ([3]; Yeast): >0.2^c mg/ml

COc1c(C)c(O)cc(O)c1C(=O)/C=C/c1ccccc1 [Aurentiacin A (1), 2′-Me ether derivative of 2′,4′,6′-trihydroxy-3′-methylchalcone]
growth inhibition (E. coli): inhibits the growth | growth inhibition (Bacillus subtilis): inhibits the growth | MBC [1, 7]: 62.5 µg/mL | MIC [1, 6]: 62.5 µg/mL | CC50 (HEp-2 cells): 6.36 ± 5.09 µg/mL | growth inhibition (Cladosprium cucumerinum): inhibits the growth

[H]/N=C(\N/C(=N/[H])NCCCCCCNC(=N)NC(=N)Nc1ccc(Cl)cc1)Nc1ccc(Cl)cc1 [Chlorhexidine, chlorhexidine gluconate]
MBC [4]: 415 µg/mL | MIC [4]: 61 µg/mL | MBC ([2]; Candida albicans): 293 µg/mL | MIC ([2]; Candida albicans): 260 µg/mL | MBC ([3]; ATCC10231, Yeast): 293 µg/mL | MIC ([3]; ATCC10231, Yeast): 352 µg/mL | MBC ([1]; Gram +ve, Actinomyces israelii, read-out: MBC, A.i): 39 µg/mL | MIC ([1]; Gram +ve, Actinomyces israelii, read-out: MIC, A.i): 33 µg/mL | MBC [1, 7]: 24 µg/mL | MIC [1, 6]: 24 µg/mL | MBC ([1]; Actinomyces israelii, fractions of the ethanolic extract, against A. israelii, Na = Not active, read-out: Average minimum bactericidal concentration (MBC) of the fractions): 48.8 µg/mL | MIC ([1]; Actinomyces israelii, fractions of the ethanolic extract, against A. israelii, read-out: Average minimum inhibitory concentration (MIC) of the fractions): 18.3 µg/mL | MBC [5]: 1040 µg/mL | MIC [5]: 260 µg/mL

COc1cccc2c1C(=O)c1c(O)c3c(c(O)c1C2=O)C[C@@](O)(C(=O)CO)C[C@@H]3O[C@H]1C[C@H](N)[C@H](O)[C@H](C)O1 [Doxorubicin, Doxorubicin HCl]
IC50 at 72 h (in vitro): 0.06 µg/mL

O=c1c(O)c(-c2ccc(O)c(O)c2)oc2cc(O)cc(O)c12 [Quercetin (4), 3,3′,4′,5,7-pentahydroxyflavone]
IC50 ± SD, 50% of DPPH that is inhibited (DPPH antioxidant assay): 0.415 ± 0.01095 µg/mL | MBC [1, 7]: 1000 µg/mL | MIC [1, 6]: 1000 µg/mL | CC50 (HEp-2 cells): 187 ± 42.6 µg/mL

O=C1O[C@H]([C@@H](O)CO)C(O)=C1O [Vitamin C, ascorbic acid]
IC50 ± SD, 50% of DPPH that is inhibited (DPPH antioxidant assay): 1.98 ± 0.006 µg/mL

Cardamomin [Cardamomin (2)]
MIC of the isolated compounds ([1]; against Actinomyces israelii): >1000 µg/mL | 50% inhibition of cell growth IC50 + S.D. (HEp-2 cells): 52.12 ± 9.41 µg/mL
